Experimental data from US20250120967A1, “TYROSINE KINASES INHIBITORS AND USES THEREOF” (GREAT NOVEL THERAPEUTICS BIOTECH & MEDICALS CORPORATION, priority 2023, published 2025).
Read-outs that look alike come from different tables or passages of the source.

What was measured:
FGR = FGR (Homo sapiens, UniProt P09769); assay: Tyrosine kinase inhibition assay; format: biochemical; details: for IC50: read-out: IC50 of compound; for inhibition at 1 µM: single concentration 1.0 μM, read-out: percent inhibition
Protocol: (§1) Tyrosine kinase inhibition assays were performed at ThermoFisher Life Technologies (Madison, WI, USA) using standard protocols (SelectScreen Biochemical Profiling Service, Thermo Fisher Scientific). ATP concentrations used were at the apparent Km. Test compounds were screened in 1% dimethylsulffoxide (DMSO) (final concentration) in the well. For 10-point titrations, 3-fold serial dilutions were conducted from the starting concentration of […]. All Peptide/Kinase Mixtures were diluted to a 2× working concentration in the appropriate Kinase Buffer. All ATP Solutions were diluted to a 4× working concentration in Kinase Buffer (50 mM HEPES pH 7.5, 0.01% BRIJ-35, 10 mM MgCl2, 1 mM EGTA). The apparent ATP Km was previously determined using a Z′-LYTE assay. The Development Reagent was diluted in Development Buffer.
(§2) The inhibition activities of compounds were determined in biochemical assays using single concentration (1.0 μM) measurements. The results were provided as percent inhibition values. A compound displaying a percent inhibition value of greater 80% was defined as a hit. 99 different tyrosine kinases were used.

NTRK2 (TRKB) = NTRK2 (TRKB) (Homo sapiens, UniProt Q16620); assay: Tyrosine kinase inhibition assay; format: biochemical; details: for inhibition at 1 µM: single concentration 1.0 μM, read-out: percent inhibition
Protocol: as §1, §2

FLT4 (VEGFR3) = FLT4 (VEGFR3) (Homo sapiens, UniProt P35916); assay: Tyrosine kinase inhibition assay; format: biochemical; details: for IC50: read-out: IC50 of compound; for inhibition at 1 µM: single concentration 1.0 μM, read-out: percent inhibition
FLT4 (VEGFR3), sequence (P35916 25-1363): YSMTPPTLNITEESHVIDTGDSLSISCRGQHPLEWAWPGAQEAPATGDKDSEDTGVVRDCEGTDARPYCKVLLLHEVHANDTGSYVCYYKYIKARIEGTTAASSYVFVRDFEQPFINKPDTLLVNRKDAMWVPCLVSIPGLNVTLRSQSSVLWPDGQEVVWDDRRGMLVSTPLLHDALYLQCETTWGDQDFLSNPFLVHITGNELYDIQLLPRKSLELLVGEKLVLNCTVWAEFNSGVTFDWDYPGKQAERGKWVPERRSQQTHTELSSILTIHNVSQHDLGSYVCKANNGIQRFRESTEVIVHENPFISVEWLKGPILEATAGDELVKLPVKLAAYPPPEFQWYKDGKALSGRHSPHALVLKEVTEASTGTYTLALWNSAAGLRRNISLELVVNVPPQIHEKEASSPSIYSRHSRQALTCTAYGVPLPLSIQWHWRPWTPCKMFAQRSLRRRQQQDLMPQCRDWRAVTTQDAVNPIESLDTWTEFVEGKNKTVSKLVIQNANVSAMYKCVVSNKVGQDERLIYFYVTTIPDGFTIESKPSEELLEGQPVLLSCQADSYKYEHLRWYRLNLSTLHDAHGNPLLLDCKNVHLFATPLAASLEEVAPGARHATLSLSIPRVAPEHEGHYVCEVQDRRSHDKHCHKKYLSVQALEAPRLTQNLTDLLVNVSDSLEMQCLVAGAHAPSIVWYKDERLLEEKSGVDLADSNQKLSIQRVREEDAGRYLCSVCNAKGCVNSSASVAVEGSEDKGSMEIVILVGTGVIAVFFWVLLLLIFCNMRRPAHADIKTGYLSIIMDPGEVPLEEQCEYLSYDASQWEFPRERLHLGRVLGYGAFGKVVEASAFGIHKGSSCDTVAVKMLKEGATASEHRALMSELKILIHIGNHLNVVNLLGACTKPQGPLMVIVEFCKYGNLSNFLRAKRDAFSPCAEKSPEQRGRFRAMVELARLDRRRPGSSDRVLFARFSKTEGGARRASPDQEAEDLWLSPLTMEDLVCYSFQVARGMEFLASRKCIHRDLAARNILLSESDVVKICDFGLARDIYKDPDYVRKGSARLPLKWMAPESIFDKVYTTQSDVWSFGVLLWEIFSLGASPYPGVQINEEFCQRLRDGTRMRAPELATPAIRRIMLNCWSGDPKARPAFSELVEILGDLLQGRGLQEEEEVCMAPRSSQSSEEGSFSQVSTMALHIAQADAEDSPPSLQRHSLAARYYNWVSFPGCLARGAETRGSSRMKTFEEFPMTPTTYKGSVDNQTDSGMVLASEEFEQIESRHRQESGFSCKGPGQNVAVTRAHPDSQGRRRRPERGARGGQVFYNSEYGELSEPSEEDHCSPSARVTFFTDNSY
Protocol: as §1, §2

ROS1 = ROS1 (Homo sapiens, UniProt P08922); assay: Tyrosine kinase inhibition assay; format: biochemical; details: for IC50: read-out: IC50 of compound; for inhibition at 1 µM: single concentration 1.0 μM, read-out: percent inhibition
Protocol: as §1, §2

EPHA2 = EPHA2 (Homo sapiens, UniProt P29317); assay: Tyrosine kinase inhibition assay; format: biochemical; details: for IC50: read-out: IC50 of compound; for inhibition at 1 µM: single concentration 1.0 μM, read-out: percent inhibition
Protocol: as §1, §2

FER = FER (Homo sapiens, UniProt P16591); assay: Tyrosine kinase inhibition assay; format: biochemical; details: for IC50: read-out: IC50 of compound; for inhibition at 1 µM: single concentration 1.0 μM, read-out: percent inhibition
FER, sequence (P16591 whole entry): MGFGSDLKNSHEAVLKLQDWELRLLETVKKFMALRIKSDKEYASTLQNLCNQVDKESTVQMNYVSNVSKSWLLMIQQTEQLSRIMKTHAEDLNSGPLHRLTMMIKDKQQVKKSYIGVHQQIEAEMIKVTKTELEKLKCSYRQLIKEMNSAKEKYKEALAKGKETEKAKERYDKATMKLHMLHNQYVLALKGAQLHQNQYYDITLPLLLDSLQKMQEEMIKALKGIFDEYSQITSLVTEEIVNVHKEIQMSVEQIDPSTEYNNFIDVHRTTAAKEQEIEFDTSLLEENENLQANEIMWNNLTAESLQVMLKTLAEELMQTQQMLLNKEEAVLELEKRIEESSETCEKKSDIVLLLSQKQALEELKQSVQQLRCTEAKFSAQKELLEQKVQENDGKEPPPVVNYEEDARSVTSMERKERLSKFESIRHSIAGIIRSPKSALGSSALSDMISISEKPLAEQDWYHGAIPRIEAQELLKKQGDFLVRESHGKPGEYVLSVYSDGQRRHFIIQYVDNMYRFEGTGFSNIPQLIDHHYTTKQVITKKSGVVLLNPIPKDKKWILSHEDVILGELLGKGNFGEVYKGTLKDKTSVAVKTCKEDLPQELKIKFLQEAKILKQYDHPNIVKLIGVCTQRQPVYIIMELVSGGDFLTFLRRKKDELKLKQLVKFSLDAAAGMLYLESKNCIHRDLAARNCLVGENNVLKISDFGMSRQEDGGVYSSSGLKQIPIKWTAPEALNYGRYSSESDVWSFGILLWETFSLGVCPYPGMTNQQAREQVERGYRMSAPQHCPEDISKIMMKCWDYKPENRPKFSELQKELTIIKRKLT
Protocol: as §1, §2

INSRR (IRR) = INSRR (IRR) (Homo sapiens, UniProt P14616); assay: Tyrosine kinase inhibition assay; format: biochemical; details: for IC50: read-out: IC50 of compound; for inhibition at 1 µM: single concentration 1.0 μM, read-out: percent inhibition
Protocol: as §1, §2

PDGFRA (PDGFR alpha) = PDGFRA (PDGFR alpha) (Homo sapiens, UniProt P16234); assay: Tyrosine kinase inhibition assay; format: biochemical; details: for IC50: read-out: IC50 of compound; for inhibition at 1 µM: single concentration 1.0 μM, read-out: percent inhibition
PDGFRA (PDGFR alpha), sequence (P16234 24-1089): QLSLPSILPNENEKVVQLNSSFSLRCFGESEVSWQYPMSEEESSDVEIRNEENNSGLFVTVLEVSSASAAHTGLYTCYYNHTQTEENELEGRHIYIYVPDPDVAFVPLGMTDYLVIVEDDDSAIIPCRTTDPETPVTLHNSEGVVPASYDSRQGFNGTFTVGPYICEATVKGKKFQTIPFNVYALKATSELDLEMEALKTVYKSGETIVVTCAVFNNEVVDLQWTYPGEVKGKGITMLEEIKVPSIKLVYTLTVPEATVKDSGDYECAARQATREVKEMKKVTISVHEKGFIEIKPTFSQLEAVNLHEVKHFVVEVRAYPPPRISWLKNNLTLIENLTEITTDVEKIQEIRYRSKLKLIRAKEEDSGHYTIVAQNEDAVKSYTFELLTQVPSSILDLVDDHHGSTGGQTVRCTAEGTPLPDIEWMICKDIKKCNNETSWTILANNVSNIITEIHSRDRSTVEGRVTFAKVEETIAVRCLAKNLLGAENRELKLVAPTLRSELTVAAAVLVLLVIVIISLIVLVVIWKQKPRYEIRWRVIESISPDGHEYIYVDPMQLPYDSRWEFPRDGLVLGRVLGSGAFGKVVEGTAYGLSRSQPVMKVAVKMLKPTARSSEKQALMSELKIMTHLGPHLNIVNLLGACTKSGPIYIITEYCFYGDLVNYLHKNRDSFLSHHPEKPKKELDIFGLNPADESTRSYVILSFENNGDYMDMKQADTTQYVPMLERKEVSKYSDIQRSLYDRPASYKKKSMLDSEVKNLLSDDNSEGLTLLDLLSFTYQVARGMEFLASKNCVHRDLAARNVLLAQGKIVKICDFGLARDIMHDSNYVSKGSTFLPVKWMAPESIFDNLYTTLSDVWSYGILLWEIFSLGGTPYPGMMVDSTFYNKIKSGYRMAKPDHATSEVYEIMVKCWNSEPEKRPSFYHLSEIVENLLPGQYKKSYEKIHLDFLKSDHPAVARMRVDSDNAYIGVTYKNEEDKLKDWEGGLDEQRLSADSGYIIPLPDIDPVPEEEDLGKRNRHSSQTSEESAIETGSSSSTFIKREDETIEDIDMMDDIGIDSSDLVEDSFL
Protocol: as §1, §2

LCK = LCK (Homo sapiens, UniProt P06239); assay: Tyrosine kinase inhibition assay; format: biochemical; details: for IC50: read-out: IC50 of compound; for inhibition at 1 µM: single concentration 1.0 μM, read-out: percent inhibition
Protocol: as §1, §2

BTK = BTK (Homo sapiens, UniProt Q06187); assay: Tyrosine kinase inhibition assay; format: biochemical; details: for IC50: read-out: IC50 of compound; for inhibition at 1 µM: single concentration 1.0 μM, read-out: percent inhibition
BTK, sequence (Q06187 whole entry): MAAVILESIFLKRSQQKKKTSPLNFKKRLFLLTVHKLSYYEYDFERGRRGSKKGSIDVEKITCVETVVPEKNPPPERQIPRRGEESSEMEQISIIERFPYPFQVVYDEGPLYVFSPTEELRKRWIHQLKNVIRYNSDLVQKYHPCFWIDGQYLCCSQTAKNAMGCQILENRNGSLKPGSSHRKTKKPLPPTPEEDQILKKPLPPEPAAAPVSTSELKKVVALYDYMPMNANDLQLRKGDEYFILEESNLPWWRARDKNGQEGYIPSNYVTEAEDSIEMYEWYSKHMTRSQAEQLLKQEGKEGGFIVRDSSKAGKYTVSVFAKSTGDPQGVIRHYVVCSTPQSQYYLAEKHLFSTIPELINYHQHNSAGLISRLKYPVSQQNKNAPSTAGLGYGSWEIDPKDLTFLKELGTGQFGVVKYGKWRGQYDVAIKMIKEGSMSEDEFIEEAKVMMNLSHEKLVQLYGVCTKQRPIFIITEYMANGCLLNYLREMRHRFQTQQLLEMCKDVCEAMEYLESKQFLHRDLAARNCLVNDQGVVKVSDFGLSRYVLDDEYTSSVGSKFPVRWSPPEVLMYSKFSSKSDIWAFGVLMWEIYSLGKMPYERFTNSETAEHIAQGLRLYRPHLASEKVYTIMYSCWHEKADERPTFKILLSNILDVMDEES
Protocol: as §1, §2

SRC = SRC (Homo sapiens, UniProt P12931); assay: Tyrosine kinase inhibition assay; format: biochemical; details: for IC50: read-out: IC50 of compound; for inhibition at 1 µM: single concentration 1.0 μM, read-out: percent inhibition
Protocol: as §1, §2

LYN B = LYN B (Homo sapiens, UniProt P07948); assay: Tyrosine kinase inhibition assay; format: biochemical; details: for inhibition at 1 µM: single concentration 1.0 μM, read-out: percent inhibition
Protocol: as §1, §2

LYN A = LYN A (Homo sapiens, UniProt P07948); assay: Tyrosine kinase inhibition assay; format: biochemical; details: for IC50: read-out: IC50 of compound; for inhibition at 1 µM: single concentration 1.0 μM, read-out: percent inhibition
Protocol: as §1, §2

HCK = HCK (Homo sapiens, UniProt P08631); assay: Tyrosine kinase inhibition assay; format: biochemical; details: for IC50: read-out: IC50 of compound; for inhibition at 1 µM: single concentration 1.0 μM, read-out: percent inhibition
Protocol: as §1, §2

FLT1 (VEGFR1) = FLT1 (VEGFR1) (Homo sapiens, UniProt P17948); assay: Tyrosine kinase inhibition assay; format: biochemical; details: single concentration 1.0 μM, read-out: percent inhibition
Protocol: as §1
(§3) The inhibition activities of compounds were determined in biochemical assays using single concentration (1.0 μM) measurements. The results were provided as percent inhibition values. […] 99 different tyrosine kinases were used.

EGFR (ErbB1) = EGFR (ErbB1) (Homo sapiens, UniProt P00533); assay: Tyrosine kinase inhibition assay; format: biochemical; details: single concentration 1.0 μM, read-out: percent inhibition
Protocol: as §1, §3

MDA-MB-453 cells = assay: In vitro cytotoxicity assay (MTT, 72 h); format: cell-based; details: Homo sapiens, growth inhibition
Protocol: (§4) Six different cell lines were used, including human breast cancer cell lines MDA-MB-231 (6×10^3) and MDA-MB-453 (2.4×10^4), human colorectal cell line SW48 (2.4×10^4), human breast epithelial cell line M10 (6×10^3), human cancer cell line A549 (1.4×10^3), and murine colorectal carcinoma tumors CT26 (6×10^3), which were seeded in a 96-well plate. […] After 72 h, MTT assay (Cayman™) was used to determine the cellular viability.

M10 cells = assay: In vitro cytotoxicity assay (MTT, 72 h); format: cell-based; details: growth inhibition, human normal cell line
Protocol: as §4

SW48 cells = assay: In vitro cytotoxicity assay (MTT, 72 h); format: cell-based; details: Homo sapiens, growth inhibition
Protocol: as §4

MDA-MB-231 cells = assay: In vitro cytotoxicity assay (MTT, 72 h); format: cell-based; details: Homo sapiens, growth inhibition
Protocol: as §4

A549 cells = assay: In vitro cytotoxicity assay (MTT, 72 h); format: cell-based; details: Homo sapiens, growth inhibition
Protocol: as §4

PTK2 (FAK) = PTK2 (FAK) (Homo sapiens, UniProt Q05397); assay: Tyrosine kinase inhibition assay; format: biochemical; details: single concentration 1.0 μM, read-out: percent inhibition
Protocol: as §1, §3

ABL1 = ABL1 (Homo sapiens, UniProt P00519); assay: Tyrosine kinase inhibition assay; format: biochemical; details: single concentration 1.0 μM, read-out: percent inhibition
ABL1, sequence (P00519 whole entry): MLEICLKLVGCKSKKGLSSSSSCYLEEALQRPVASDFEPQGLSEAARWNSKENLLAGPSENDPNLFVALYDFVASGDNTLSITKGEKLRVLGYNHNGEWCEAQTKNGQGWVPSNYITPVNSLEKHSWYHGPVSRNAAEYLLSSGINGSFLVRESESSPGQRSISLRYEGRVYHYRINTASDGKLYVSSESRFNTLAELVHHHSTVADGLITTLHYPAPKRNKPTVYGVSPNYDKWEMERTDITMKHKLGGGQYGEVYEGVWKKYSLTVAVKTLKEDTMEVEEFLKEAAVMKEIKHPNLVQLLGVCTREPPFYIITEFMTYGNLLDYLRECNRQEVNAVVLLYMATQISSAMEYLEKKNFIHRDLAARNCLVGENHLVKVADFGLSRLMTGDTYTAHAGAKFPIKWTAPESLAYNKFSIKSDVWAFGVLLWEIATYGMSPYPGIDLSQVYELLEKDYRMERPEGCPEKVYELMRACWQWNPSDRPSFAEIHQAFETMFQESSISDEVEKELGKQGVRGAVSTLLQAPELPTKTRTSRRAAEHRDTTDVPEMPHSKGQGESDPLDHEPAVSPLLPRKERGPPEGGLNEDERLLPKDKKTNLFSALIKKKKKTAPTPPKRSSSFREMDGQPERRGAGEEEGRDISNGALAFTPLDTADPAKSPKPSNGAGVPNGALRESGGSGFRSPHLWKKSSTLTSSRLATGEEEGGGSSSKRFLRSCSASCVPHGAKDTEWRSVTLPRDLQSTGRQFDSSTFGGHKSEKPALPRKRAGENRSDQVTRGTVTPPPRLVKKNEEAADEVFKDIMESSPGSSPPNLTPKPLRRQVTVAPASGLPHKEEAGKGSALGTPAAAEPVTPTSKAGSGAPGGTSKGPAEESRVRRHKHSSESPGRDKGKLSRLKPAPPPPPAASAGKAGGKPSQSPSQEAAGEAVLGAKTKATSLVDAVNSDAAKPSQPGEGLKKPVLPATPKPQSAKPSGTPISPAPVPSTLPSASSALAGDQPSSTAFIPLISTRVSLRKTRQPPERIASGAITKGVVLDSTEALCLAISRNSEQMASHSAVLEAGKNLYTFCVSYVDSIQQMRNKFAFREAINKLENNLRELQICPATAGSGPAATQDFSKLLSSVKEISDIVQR
Protocol: as §1, §3

[1] = NTRK2 (TRKB), read-out: IC50 of compound
[2] = LYN B, read-out: IC50 of compound

SMILES	inhibition at 1 µM (FGR) [%]	inhibition at 1 µM (NTRK2 (TRKB); NTRK2 (TRKB)) [%]	inhibition at 1 µM (FLT4 (VEGFR3)) [%]	inhibition at 1 µM (ROS1) [%]	inhibition at 1 µM (EPHA2) [%]	inhibition at 1 µM (FER) [%]	inhibition at 1 µM (INSRR (IRR)) [%]	inhibition at 1 µM (PDGFRA (PDGFR alpha)) [%]	inhibition at 1 µM (LCK) [%]	inhibition at 1 µM (BTK) [%]	inhibition at 1 µM (SRC) [%]	inhibition at 1 µM (LYN B; LYN B) [%]	inhibition at 1 µM (LYN A) [%]	inhibition at 1 µM (HCK) [%]	inhibition at 1 µM (FLT1 (VEGFR1)) [%]	IC50 (MDA-MB-453 cells) [nM]	IC50 (M10 cells) [nM]	IC50 (SW48 cells) [nM]	IC50 (MDA-MB-231 cells) [nM]	IC50 (A549 cells) [nM]	other results
COc1cc2nccc(Oc3ccc(NC(=O)C4(C(=O)Nc5ccc(F)cc5)CC4)cc3)c2cc1OC [Cabozantinib, reference compound]	97	95	95	87	95	89	38	92	95	82	89	91	92	90	67	20500 ± 4480	9570 ± 1620	4330 ± 330	8720 ± 1080	4050 ± 460	IC50 (FGR): 88.8 nM; IC50 (NTRK2 (TRKB)): 53.3 nM; IC50 (FLT4 (VEGFR3)): 30.3 nM; IC50 (ROS1): 60.6 nM; IC50 (EPHA2): 37.7 nM; IC50 (FER): 424 nM; IC50 (INSRR (IRR)): 386 nM; IC50 (PDGFRA (PDGFR alpha)): 84.1 nM; IC50 (LCK): 38.1 nM; IC50 (BTK): 172 nM; IC50 (SRC): 141 nM; IC50 (LYN B): 67.7 nM; IC50 (LYN A): 217 nM; IC50 (HCK): 111 nM; inhibition at 1 µM (EGFR (ErbB1)): 32%
COc1cc2nccc(Oc3ccc(NC(=O)C4(NC(=O)c5ccc(F)cc5)CC4)cc3F)c2cc1OC [Cbo-02, N-(1-((4-((6,7-diMethoxyquinolin-4-yl)oxy)-3-fluorophenyl)carbamoyl)cyclopropyl)-4-fluorobenzamide]	74	23	79	56	33	88	80	48	85	98	42	81	71	62	30	5310 ± 570	3920 ± 250	820 ± 11	5640 ± 360	1510 ± 57	inhibition at 1 µM (PTK2 (FAK)): 20%; inhibition at 1 µM (ABL1): 24%; inhibition at 1 µM (EGFR (ErbB1)): 44%
COc1cc2nccc(Oc3ccc(NC(=O)C4(NC(=O)c5ccc(F)cc5)CC4)cc3F)c2cc1Oc1ccc(N)cc1F [Cbo-10]	92	73	92	95	56	97	93	84	96	102	86	86	81	72	61	4670 ± 280	911 ± 25	790 ± 1	2450 ± 140	1180 ± 36	inhibition at 1 µM (PTK2 (FAK)): 33%; inhibition at 1 µM (ABL1): 32%; inhibition at 1 µM (EGFR (ErbB1)): 88%
COc1cc2nccc(Oc3ccc(NC(=O)C4(NC(=O)c5ccc(F)cc5)CC4)cc3F)c2cc1Oc1c(F)cc(N)cc1F [Cbo-14]	92	88	92	97	61	99	93	94	97	101	86	87	86	74	62	2680 ± 750	920 ± 8	790 ± 1	14400 ± 5300	1230 ± 34	inhibition at 1 µM (PTK2 (FAK)): 29%; inhibition at 1 µM (ABL1): 44%; inhibition at 1 µM (EGFR (ErbB1)): 89%
COc1cc2nccc(Oc3ccc(NC(=O)C4(C(=O)Nc5ccc(F)cc5)CC4)cc3F)c2cc1Oc1ccc(N)cc1F [Cbo-23]	97	112	99	100	102	101	97	95	99	101	94	96	92	99	76	1710 ± 140	1010 ± 20	790 ± 5	1950 ± 1950	1690 ± 130	IC50 (FGR): 25.3 nM; IC50 (NTRK2 (TRKB); [1]): 14.8 nM; IC50 (FLT4 (VEGFR3)): 20.8 nM; IC50 (ROS1): 5.87 nM; IC50 (EPHA2): 20.9 nM; IC50 (FER): 24.7 nM; IC50 (INSRR (IRR)): 53.4 nM; IC50 (PDGFRA (PDGFR alpha)): 36.9 nM; IC50 (LCK): 15.9 nM; IC50 (BTK): 9.01 nM; IC50 (SRC): 32.1 nM; IC50 (LYN B; [2]): 18.8 nM; IC50 (LYN A): 53.1 nM; IC50 (HCK): 21.4 nM; inhibition at 1 µM (PTK2 (FAK)): 66%; inhibition at 1 µM (ABL1): 58%; inhibition at 1 µM (EGFR (ErbB1)): 58%
CNC(=O)c1cc2c(Oc3ccc(NC(=O)C4(C(=O)Nc5ccc(F)cc5)CC4)cc3)ccnc2cc1OC [Zanzalintinib, reference compound]																22600 ± 1050	3280 ± 1840	6860 ± 260	6170 ± 150	7580 ± 180	IC50 (FGR): 35.4 nM; IC50 (NTRK2 (TRKB); [1]): 112 nM; IC50 (FLT4 (VEGFR3)): 21.7 nM; IC50 (ROS1): 71.4 nM; IC50 (EPHA2): 52.2 nM; IC50 (FER): 266 nM; IC50 (INSRR (IRR)): 302 nM; IC50 (PDGFRA (PDGFR alpha)): 93.9 nM; IC50 (LCK): 7.07 nM; IC50 (BTK): 111 nM; IC50 (SRC): 45.1 nM; IC50 (LYN B; [2]): 30.7 nM; IC50 (LYN A): 70.9 nM; IC50 (HCK): 59 nM
